Measured values from US20260258015A1, “CRYSTALLINE FORMS OF 2-(4-(4-(AMINOMETHYL)-1-OXO-1,2- DIHYDROPHTHALAZIN-6-YL)-1-METHYL-1H- PYRAZOL-5-YL)-4-CHLORO-6-CYCLOPROPOXY-3-FLUOROBENZONITRILE” (MIRATI THERAPEUTICS, INC., priority 2023, published 2026).

How the values were obtained:
[1] = acids (counterions) used in the salt screen of Compound 1; cited from earlier work
[2] = Behaviour of the isolated solid after air drying at ambient condition (hygroscopicity); format: physicochemical; conditions: solid from slurry of free base, sulfuric acid and THF; air dried at ambient condition
Protocol: Using the amorphous free base from Example 1, 64 salt screen experiments were conducted using 16 acids in four solvent systems, plus four blank experiments in each respective solvent system. Slurry methods as disclosed herein were used to provide salt polymorphs of Compound 1. […] After magnetically stirring for four days at room temperature, any precipitation was isolated by centrifugation. If there was no precipitation after four days at room temperature, the clear solutions were transferred to stir at 5° C. to induce crystallization for 24 hours. If still no solids were observed, the final clear solution was subjected to slow evaporation at room temperature for four days. Any isolated solid was air dried at ambient condition before analysis.
[…]. As such, DSC/TGA data were not collected.

For `O=C(O)CC(O)C(=O)O` (centres unmarked) [Malic acid], the pKa [1] is given as 3.16.
With `Cn1ncc(-c2ccc3c(=O)[nH]nc(CN)c3c2)c1-c1c(F)c(Cl)cc(OC2CC2)c1C#N.O=S(=O)(O)O` [sulfate salt Form A, 2-(4-(4-(aminomethyl)-1-oxo-1,2-dihydrophthalazin-6-yl)-1-methyl-1H-pyrazol-5-yl)-4-chloro-6-cyclopropoxy-3-fluorobenzonitrile sulfate] the “state of the solid after air drying (hygroscopicity)” value [2] was “remained a wet paste, likely due to hygroscopicity”.
